Structures can show the parent of a compound that is named as a salt. Where two headings read alike, the source gives them in different places.
Assays:
[1] = molecular target: T1, α1C Human Adrenergic Receptor (Homo sapiens, UniProt P35348); experiment: Radioligand binding, [3H]prazosin, cloned human α1C adrenergic receptor
T1 construct: The entire coding region of α1C (1401 bp); expressed in transfected cells
T1 sequence (P35348 1-466): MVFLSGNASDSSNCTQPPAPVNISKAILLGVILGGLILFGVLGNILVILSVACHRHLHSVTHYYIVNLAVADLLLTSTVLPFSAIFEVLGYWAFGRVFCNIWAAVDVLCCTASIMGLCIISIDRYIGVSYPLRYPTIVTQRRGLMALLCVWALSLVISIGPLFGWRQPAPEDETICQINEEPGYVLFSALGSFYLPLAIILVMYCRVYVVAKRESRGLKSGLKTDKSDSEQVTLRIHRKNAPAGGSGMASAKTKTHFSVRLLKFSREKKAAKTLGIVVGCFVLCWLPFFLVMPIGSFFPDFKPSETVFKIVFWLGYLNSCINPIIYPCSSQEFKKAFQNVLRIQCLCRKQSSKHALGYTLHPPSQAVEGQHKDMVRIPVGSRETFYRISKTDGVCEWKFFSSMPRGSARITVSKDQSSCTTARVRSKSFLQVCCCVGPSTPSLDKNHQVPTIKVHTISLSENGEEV
Method in brief: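 LM(tk−) membranes (stable human α1C); [3H]prazosin 0.5 nM; 37° C., 20 min; Tris-HCl 50 mM/MgCl2 1 mM/ascorbate 0.1%, pH 7.5; NSB 10 μM phentolamine; GF/B filtration.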

[2] = molecular target: T2, α2B receptor (Homo sapiens, UniProt P18089); experiment: Competition binding, [3H]rauwolscine, human α2B receptor
T2 construct: host or cells: LM(tk-) cells, line L-NGC-α2B
T2 sequence (P18089 1-450): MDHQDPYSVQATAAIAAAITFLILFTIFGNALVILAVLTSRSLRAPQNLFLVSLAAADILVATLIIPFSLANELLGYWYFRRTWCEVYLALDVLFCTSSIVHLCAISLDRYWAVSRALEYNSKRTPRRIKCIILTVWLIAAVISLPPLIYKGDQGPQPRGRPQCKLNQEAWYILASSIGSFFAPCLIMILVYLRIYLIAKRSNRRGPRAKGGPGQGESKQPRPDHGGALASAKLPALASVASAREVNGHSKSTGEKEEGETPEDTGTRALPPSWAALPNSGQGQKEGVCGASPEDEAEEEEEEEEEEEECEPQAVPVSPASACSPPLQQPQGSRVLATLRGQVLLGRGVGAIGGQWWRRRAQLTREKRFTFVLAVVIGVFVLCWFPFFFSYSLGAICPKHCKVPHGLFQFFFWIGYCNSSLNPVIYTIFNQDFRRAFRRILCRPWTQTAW
Method in brief: (§1)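 Filter-bound [3H]rauwolscine (0.5 nM) was measured after equilibrium competition with test antagonists on lysates of LM(tk−) cells stably transfected with each human α2 subtype. Buffer: 25 mM glycylglycine, pH 7.6 at room temperature; 10 μM phentolamine gave nonspecific binding.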

[3] = molecular target: T3, α2A receptor (Homo sapiens, UniProt P08913); experiment: Competition binding, [3H]rauwolscine, human α2A receptor
T3 construct: host or cells: LM(tk-) cells, line L-α2A
T3 sequence (P08913 1-465): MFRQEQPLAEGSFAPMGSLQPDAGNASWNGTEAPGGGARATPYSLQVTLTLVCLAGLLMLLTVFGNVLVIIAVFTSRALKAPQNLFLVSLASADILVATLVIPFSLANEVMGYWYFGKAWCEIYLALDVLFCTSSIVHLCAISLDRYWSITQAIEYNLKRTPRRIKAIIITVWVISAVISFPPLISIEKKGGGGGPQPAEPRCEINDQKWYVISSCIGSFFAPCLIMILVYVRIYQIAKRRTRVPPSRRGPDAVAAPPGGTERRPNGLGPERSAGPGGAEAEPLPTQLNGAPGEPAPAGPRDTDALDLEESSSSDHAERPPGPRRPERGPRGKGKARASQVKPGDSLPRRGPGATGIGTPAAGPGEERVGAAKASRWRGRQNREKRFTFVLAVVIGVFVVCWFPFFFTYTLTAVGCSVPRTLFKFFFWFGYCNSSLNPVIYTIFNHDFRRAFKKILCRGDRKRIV
Method in brief: as §1

[4] = pKi alpha-1 1c, cloned human receptor in LM(tk-) cell membranes, SEM and n in lines below
[5] = pKi alpha-2 2b, [3H]rauwolscine, LM(tk-) cell line L-NGC-α2B, SEM and n in lines below
[6] = [3H]rauwolscine, LM(tk-) cell line L-α2A, SEM and n in lines below, read-out: pKi alpha-2 2a (converted)
[7] = pKi alpha-1 1c, cloned human α1C receptor, LM(tk−) cell membranes
[8] = pKi alpha-2 2b, [3H]rauwolscine, human α2B receptor, LM(tk−) cells
[9] = [3H]rauwolscine, human α2A receptor, LM(tk−) cells, read-out: pKi alpha-2 2a (converted)
[10] = cloned human α1C receptor, LM(tk−) cell membranes, read-out: pKi alpha-1 1c (converted)
[11] = cloned human receptor in LM(tk-) cell membranes, SEM and n in lines below, read-out: pKi alpha-1 1c (converted)

In the case of `CC1=C(C(=O)NCCCN2CCC(c3ccccc3)(c3ccccc3)CC2)C(c2ccc([N+](=O)[O-])cc2)C2=C(CCCC2=O)N1` (stereo not drawn) [Example 40, 1,4,5,6,7,8-Hexahydro-2-methyl-4-(4-nitrophenyl)-5-oxo-3-{N-[3-(4,4-diphenylpiperidin-1-yl)propyl]}carboxamidoquinoline], the Ki [1, 4] is reported as 0.0138 µM, the Ki [2, 5] is reported as 1.78 µM and the Ki [3, 6] is reported as 1.86 µM.
Molecule `COC(=O)C1=C(C)NC(c2ccoc2)=C(C(=O)NCCCN2CCC(c3ccccc3)(c3ccccc3)CC2)C1c1ccc([N+](=O)[O-])cc1` (stereo not drawn) [Example 43, 2-(Furan-3-yl)-, 4-dihydro-5-methoxycarbonyl-6-methyl-4-(4-nitrophenyl)-3-(N-(3-(4,4-diphenylpiperidin-1-yl)propyl)carboxamidopyridine, hydrochloride salt] has a Ki [1, 4] of 0.0024 µM, a Ki [2, 5] of 0.437 µM and a Ki [3, 6] of 0.661 µM.
Work on `CCC1=C(C(N)=O)C(c2ccc([N+](=O)[O-])cc2)C(C(=O)NCCCN2CCC(c3ccccc3)(c3ccccc3)CC2)=C(C)N1` (stereo not drawn) [Example 41, 3-Carboxamido-2-ethyl-1,4-dihydro-6-methyl-4-(4-nitrophenyl)-3-{N-[3-(4,4-diphenylpiperidin-1-yl)propyl]}carboxamidopyridine] yielded a Ki [1, 4] of 0.00182 µM, a Ki [2, 5] of 0.603 µM and a Ki [3, 6] of 0.427 µM.
With `CCC1=C(C(N)=O)C(c2ccc([N+](=O)[O-])cc2)C(C(=O)NCCCN2CCC(C#N)(c3ccccc3)CC2)=C(CC)N1` (single isomer, unassigned; (-)) [(−)-102] the Ki [1, 7] was 0.112 µM, the Ki [2, 8] was 0.589 µM and the Ki [3, 9] was 1.91 µM.
Work on `CCC1=C(C(=O)OCCC#N)C(c2ccc([N+](=O)[O-])cc2)C(C(=O)NCCCN2CCC(c3ccccc3)(c3ccccc3)CC2)=C(COCCN=[N+]=[N-])N1` (stereo not drawn) [Example 141] yielded a Ki [1, 7] of 0.00537 µM, a Ki [2, 8] of 0.437 µM and a Ki [3, 9] of 0.603 µM.
`CCC1=C(C(=O)NCCCN2CCC(c3ccccc3)(c3ccccc3)CC2)C(c2ccc(N)cc2)C(C(=O)OC)=C(C)N1` (stereo not drawn) [Example 114, 4-(4-Aminophenyl)-2-ethyl-1,4-dihydro-5-methoxycarbonyl-6-methyl-3-(N-(3-(4,4-diphenylpiperidin-1-yl)propyl)carboxamido)-pyridine] was tested, and the Ki [1, 10] was 0.0102 µM, the Ki ([2]; pKi alpha-2 2b) was 0.468 µM and the Ki [3] was 2.09 µM.
`CCC1=C(C(N)=O)C(c2ccc([N+](=O)[O-])cc2)C(C(=O)NCCCN2CCC(O)(c3ccccc3)CC2)=C(CC)N1` (stereo not drawn) [Example 100, 5-Carboxamido-2,6-diethyl-1,4-dihydro-3-{N-(3-(4-hydroxy-4-phenylpiperidin-1-yl)propyl]}carboxamido-4-(4-nitrophenyl)pyridine hydrochloride hydrate] showed a Ki [1, 7] of 0.00437 µM, a Ki [2, 8] of 2.88 µM and a Ki [3, 9] of 0.794 µM.
Molecule `COC(=O)C1=C(C)NC(C)=C(C(=O)NCCCN2CCC(c3ccccc3)(c3ccccc3)CC2)C1c1ccc(C#N)cc1` (stereo not drawn) [Example 12, 4-(4-Cyanophenyl)-1,4-dihydro-3-methoxycarbonyl-2,6-dimethyl-5-(N-(3-(4,4-diphenylpiperidin-1-yl)propyl)carboxamido)pyridine] has a Ki [1, 11] of 0.00182 µM, a Ki ([2]; pKi alpha-2 2b) of 1.26 µM and a Ki [3] of 0.776 µM.
In the case of `CC(C)C1=C(C(N)=O)C(c2ccc([N+](=O)[O-])cc2)C(C(=O)NCCCN2CCC(c3ccccc3)(c3ccccc3)CC2)=C(C(C)C)N1` (stereo not drawn) [Example 127], the Ki [1, 7] is reported as 0.055 µM, the “pKi alpha-2 2b” value ([2]; [3H]rauwolscine, human α2B receptor, LM(tk−) cells) is reported as 6.42 and the “pKi alpha-2 2a” value ([3]; [3H]rauwolscine, human α2A receptor, LM(tk−) cells) is reported as 6.17.
Work on `COC(=O)C1=C(C)NC(C)=C(C(=O)NCCCN2CCC(c3ccccc3)(c3ccccc3)CC2)C1c1cc(OC)c(OC)c(OC)c1` (stereo not drawn) [Example 27] yielded a Ki [1, 11] of 0.00363 µM, a Ki ([2]; pKi alpha-2 2b) of 1.05 µM and a Ki [3] of 1.95 µM.
`CCC1=C(C(N)=O)C(c2ccc(S(C)(=O)=O)cc2)C(C(=O)NCCCN2CCC(c3ccccc3)(c3ccccc3)CC2)=C(CC)N1` (stereo not drawn) [Example 116, 5-Carboxamido-2,6-diethyl-1,4-dihydro-4-(4-methanesulfonylphenyl)-3-(N-(3-(4,4-diphenylpiperidin-1-yl)propyl)carboxamido)-pyridine] gave a Ki [1, 7] of 0.00389 µM, a Ki [2, 8] of 0.372 µM and a Ki [3, 9] of 1.45 µM.
Work on `COC(=O)C1=C(C)NC(C)=C(C(=O)NCCCN2CCC(c3ccccc3)(c3ccccc3)CC2)C1c1ccc(OC)cc1` (stereo not drawn) [Example 21, 1,4-Dihydro-3-methoxycarbonyl-4-(4-Methoxyphenyl)-2,6-dimethyl-5-(N-(3-(4,4-diphenylpiperidin-1-yl)propyl)carboxamido)pyridine] yielded a Ki [1, 11] of 0.00708 µM, a Ki ([2]; pKi alpha-2 2b) of 1.07 µM and a Ki [3] of 2.09 µM.
With `COc1cccc(C2C(C(N)=O)=C(C)NC(C)=C2C(=O)NCCCN2CCC(c3ccccc3)(c3ccccc3)CC2)c1` (stereo not drawn) [Example 117, 5-Carboxamido-1,4-dihydro-4-(3-Methoxyphenyl)-2,6-dimethyl-3-(N-(3-(4,4-diphenylpiperidin-1-yl)propyl)carboxamido)-pyridine] the Ki [1, 7] was 0.0275 µM, the Ki [2, 8] was 0.437 µM and the Ki [3, 9] was 0.955 µM.
`CCC1=C(C(N)=O)C(c2ccc([N+](=O)[O-])cc2)C(C(=O)NCCCN2CCN(c3ccccc3OC)CC2)=C(CC)N1` (stereo not drawn) [Example 125, 5-Carboxamido-2,6-diethyl-1,4-dihydro-3-(N-{3-[4-(2-methoxyphenyl)piperazin-1-yl]propyl})carboxamido-4-(4-nitrophenyl)pyridine] showed a Ki [1, 10] of 0.00115 µM, a Ki ([2]; [3H]rauwolscine, human α2B receptor, LM(tk−) cells, read-out: pKi alpha-2 2b (converted)) of 0.186 µM and a Ki [3, 9] of 0.0269 µM.
